Measurements as given in paper PMC6123649, “Structural basis for specific inhibition of the highly sensitive ShHTL7 receptor” (EMBO Reports, 2018).
Where two headings read alike, the source gives them in different places.

What was measured:
ShHTL7 [1] = target: T1, ShHTL7 (Striga hermonthica, UniProt A0A0M3PNA2); assay: Yoshimulactone Green (YLG) hydrolysis competition assay; type: biochemical
T1 sequence (A0A0M3PNA2 1-271): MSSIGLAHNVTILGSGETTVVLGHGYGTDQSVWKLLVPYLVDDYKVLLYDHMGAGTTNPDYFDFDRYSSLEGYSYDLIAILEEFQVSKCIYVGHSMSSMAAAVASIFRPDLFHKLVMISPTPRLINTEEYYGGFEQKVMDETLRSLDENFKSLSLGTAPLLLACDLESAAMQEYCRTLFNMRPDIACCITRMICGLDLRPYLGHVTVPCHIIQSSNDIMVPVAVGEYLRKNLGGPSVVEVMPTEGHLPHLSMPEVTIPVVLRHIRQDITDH
Protocol: In vitro YLG hydrolysis assays were performed using 3 μM of ShHTL7, ShHTL7‐L143Y, AtD14, and OsD14 in a reaction buffer (1× PBS) with 0.1% dimethyl sulfoxide (DMSO) in a 100 μl volume on a 96‐well black plate (Greiner). The fluorescent intensity was measured by SpectraMax i3 (Molecular Devices) using an excitation wavelength of 480 nm and a detection wavelength of 520 nm. […] Protein‐Triton mixes were pre‐incubated for 30 min. 1 μM YLG (Tokyo Chemical Industry Co. Ltd.) was then added, and the assay was incubated for 60 min. The change in fluorescence observed over the course of 1 h incubation of YLG in buffer without protein was subtracted from the data collected in the presence of protein. The resulting relative fluorescence values were analyzed. The inhibitory curves and IC50 values were plotted using GraphPad (Prism 6) four‐parameter logistic curve. The rate of YLG hydrolysis by ShHTL7 was recorded following the above method at 10‐min interval for 2 h.

ShHTL7 [2] = target: T1, ShHTL7; assay: Differential static light scattering (DSLS), aggregation temperature; type: binding; conditions: 10 μM protein, varying compound concentrations
Protocol: The specific aggregation temperature, T agg, at which ShHTL7, ShHTL7L143Y, AtD14, and OsD14 aggregated in the presence or absence of Triton X‐100, GR24, and PAA was measured using DSLS on the Stargazer system (Harbinger Biotechnology and Engineering Corporation, Markham, Canada). Protein samples at a concentration of 10 μM were overlaid with mineral oil in a clear bottom 384‐well black plate (Corning) and heated from 20 to 95°C at 1°C/min; light scattering was detected by a CCD camera every 0.5°C in the presence or absence of varying concentrations of Triton X‐100, GR24, and PAA yielding the difference in aggregation temperature at a particular concentration from apoproteins (ΔT agg). Data were normalized, and ΔT agg plotted against the Triton X‐100, GR24, and PAA concentration. Resulting data were plotted to determine the change in T agg of all proteins when bound to Triton X‐100, GR24, and PAA using GraphPad (Prism 6).

ShHTL7 [3] = target: T1, ShHTL7; assay: Microscale thermophoresis (MST); type: binding
Protocol: ShHTL7 was N‐terminally labeled with RED dye (NT‐647) following the protocol from manufacturer (NanoTemper, Germany). Free dye was removed by passing through the Sephadex G‐25 column. Serial dilutions of unlabeled Triton X‐100, GR24, and PAA ranging from 25 μM to sub‐nanomolar range were mixed with 20 nM of NT‐647‐labeled ShHTL7 in buffer (50 mM Tris–HCl, 150 mM NaCl, 0.005% Tween‐20) and incubated for 2.5 h in the studies for Triton X‐100 and PAA except with GR24, and it was recorded after 10‐min incubation. About 10 μl of sample was loaded into premium monolith NT capillaries, and assays were carried out in a NanoTemper Monolith NT.015T. The red fluorescence was excited by a light‐emitting diode, and its emission was recorded on the focused part of capillaries. Using laser diode, a microscopic temperature gradient was created at the same location and the fluorescence depletion was measured. K d values were determined by plotting the concentrations of unlabeled ligands against the changes in fluorescent thermophoresis signal, and the data were analyzed using the NanoTemper analysis software.

Striga hermonthica seeds = assay: Striga hermonthica germination bioassay; type: in vivo; conditions: for effect on GR24-induced Striga germination: n‐dodecyl‐β‐D‐maltoside at 15 and 1.5 µM, same conditions as Triton
Protocol: Striga hermonthica seeds were collected from Sorghum bicolor field in Sudan. For germination bioassays, Striga seeds were first sterilized and pre‐conditioned as described before 31. […] Triton X‐100/GR24 mixtures were applied (50 μl per disk) in four replicates. Corresponding volumes of GR24 and sterile MiliQ water were included as positive and negative control, respectively. The petri dishes were sealed with parafilm, enfolded with aluminum foil, and incubated for 48 h at 30°C. The germinated (seeds with radicle emerging through the seed coat) and non‐germinated Striga seeds were recorded under a binocular, and germination percentage was calculated.

ShHTL6 = tested on: ShHTL6; set-up: method as in PMID 26293962, PMID 26450211; conditions: recombinant ShHTL6; read-out: IC50 for GR24, in vitro YLG assay; cited from earlier work
ShHTL7 [4] = target: T1, ShHTL7; assay: Drug affinity response target stability (DARTS) assay; type: binding; conditions: 100 μM compound; proteinase K 10 μg/ml
Protocol: ShHTL7 and mutants were diluted to a concentration of 30 μM in 50 mM Tris–HCl pH 7.5, 150 mM NaCl, 0.005% Tween‐20, incubated with GR24 at final concentration of 100 μM for 5 min, and separately with 100 μM Triton X‐100 for 2 h. One sample was kept aside for use as an undigested control. Proteinase K (Hampton Research) was then added to ShHTL7 protein to a final protease concentration of 10 μg/ml. Reactions were incubated at room temperature for 5 min and then SDS–PAGE loading buffer was added to stop the reaction, and the samples were immediately boiled for 3 min. Equal amounts of each sample, corresponding to 10 μg of protein, were run on a 4–20% gradient polyacrylamide gel (Bio‐Rad) and analyzed by Coomassie Blue staining 32.

ShHTL4‐6 = tested on: ShHTL4‐6; set-up: method as in PMID 26293962; conditions: transgenic A. thaliana, read-out: EC50 values for GR24; cited from earlier work
ShHTL7 [5] = target: T1, ShHTL7; conditions: cited from earlier work
ShHTL7 [6] = target: T1, ShHTL7; assay: Intrinsic tryptophan fluorescence assay; type: binding
ShHTL7 [7] = target: T1, ShHTL7; set-up: method as in PMID 26293962, PMID 26450211; conditions: read-out: IC50 for GR24, in vitro YLG assay; recombinant ShHTL7; cited from earlier work

Question: With `CC(C)(C)CC(C)(C)c1ccc(OCCOCCO)cc1` [4-ter-octylphenol diethoxylate, 4‐ter‐octylphenol diethoxylate] as the molecule, how does the IC50 (ShHTL7 [1]) read?
Answer: 7480 ± 2130 nM

Question: Which results are given for `CCCCCCCCCCCCO[C@@H]1O[C@H](CO)[C@@H](O[C@H]2O[C@H](CO)[C@@H](O)[C@H](O)[C@H]2O)[C@H](O)[C@H]1O` [n‐dodecyl‐β‐D‐maltoside, reference compound]?
Answer: effect on ShHTL7 aggregation temperature (T agg) (ShHTL7 [2]): did not increase; effect on ShHTL7 aggregation temperature (T agg) (ShHTL7 [2]; listed as nDM): nor increase Tagg; binding to ShHTL7 (MST) (ShHTL7 [3]; authors' reply in peer review file): does neither bind; effect on GR24-induced Striga germination (Striga hermonthica seeds): did not affect germination; effect on GR24-induced Striga germination (Striga hermonthica seeds; listed as nDM): does not block germination

Question: Which results are given for `CC1=CC(O/C=C2/C(=O)OC3c4ccccc4CC23)OC1=O` (stereo not shown) [GR24]?
Answer: IC50 (ShHTL6): ~500 nM; IC50 (ShHTL7 [1]): 870 ± 60 nM; protection of ShHTL7 from digestion by proteinase K (ShHTL7 [4]): efficiently protected; EC50 (ShHTL4‐6): 10 to 300 nM; EC50 of GR24 for ShHTL7 in transgenic Arabidopsis (ShHTL7 [5]): picomolar range; EC50 (ShHTL7 [5]; read-out: EC50 (vs. GR24), seed germination in transgenic Arabidopsis lines expressing ShHTL7, ref Toh et al., 2015 (ref. 22)): 0.0175 nM; effect on ShHTL7 aggregation temperature (T agg) (ShHTL7 [2]): destabilized; Kd (ShHTL7 [3]): 920 ± 10 nM; Kd (ShHTL7 [6]): 390 ± 50 nM; IC50 (ShHTL7 [7]): ~500 nM

Question: For `CC(C)(C)CC(C)(C)c1ccc(OCCO)cc1` [4-ter-octylphenol Monoethoxylate, 4‐ter‐octylphenol monoethoxylate], which IC50 (ShHTL7 [1]) is on record?
Answer: 9240 ± 3170 nM

Question: Which results are given for `CC(C)(C)CC(C)(C)c1ccc(OCC(=O)O)cc1` [PAA, 2‐[4‐(2,4,4‐trimethylpentan‐2‐yl)phenoxy]acetic acid]?
Answer: IC50 (ShHTL7 [1]): 1480 nM; effect on ShHTL7 aggregation temperature (T agg) (ShHTL7 [2]): stabilized; Kd (ShHTL7 [3]): 1700 ± 240 nM; inhibition at 10 µM (Striga hermonthica seeds; Striga hermonthica, 48 h, read-out: inhibition of S. hermonthica germination): ≤ 40%

Question: With `CCOC(=O)c1ccccc1-c1c2ccc(=O)cc-2oc2cc(OC3C=C(C)C(=O)O3)ccc12` (stereo not shown) [YLG, reference compound] as the molecule, how does the “time for hydrolysis of YLG by ShHTL7” value (ShHTL7 [1]; 3 μM ShHTL7, 1 μM YLG, absence of Triton) read?
Answer: ≤ 50 min
